# According to patent US12552824B2, “C-mannoside compounds useful for the treatment of urinary tract infections” (GLAXOSMITHKLINE INTELLECTUAL PROPERTY DEVELOPMENT LIMITED, priority 2018, dated 2026):
# Columns and labels:
# [1] = biological target: T1, FimH (Escherichia coli, UniProt Q1R2J4); format: cell-based; settings: concentration reducing bacterial agglutination of guinea pig red blood cells by greater than 90%; UTI89 bacteria;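 note: concentration in nM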
# T1 construct: endogenous in cells; host or cells: E. coli UTI89 whole bacteria, agglutinating guinea pig red blood cells
# In short: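 Hemagglutination inhibition using uropathogenic E. coli UTI89 and guinea pig red blood cells.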
# [2] = Rat pharmacokinetics: IV infusion 1 mg/kg, then PO 5 mg/kg; blood and urine by LC-MS/MS; format: in vivo, Male Wistar Han rats; settings: for % F: oral bioavailability, ratio of dose-normalised AUC PO (5 mg/kg) and IV infusion (1 mg/kg); for Ue % po: percentage of oral dose (5 mg/kg) eliminated unchanged in urine
# From the text: General Assays for Obtaining AUC Oral h*μm, % F, and Ue % PO Values
# Male Wistar Han rats were purchased from Vital River Laboratory Animal Technology Co. Ltd (Beijing, China). The animals were approx. 6-8 weeks old with body weights of 200-300 g on the dosing date. The animals were housed in a 12-hour light/12-hour dark cycle environment and had free access to food and water. All animals were fed prior to dosing. Studies were approved by the Pharmaron Institutional Animal Care and Use Committee (IACUC).
# Test article was administered as an intravenous infusion for 1 hour (1 mg/kg) at 5 mL/kg/h. After 48 h, animals received a single oral dose (5 mg/kg, free form) at a dose volume of 10 mL/kg, respectively. Blood samples were collected at various time points after IV infusion and PO administrations. Urine samples were collected at various time points after IV infusion and PO administrations.
# Test article was dissolved in DMSO with vortexing and sonification to obtain a stock solution. An aliquot of the stock solution was mixed with 10% HP-β-CD in saline with vortexing to obtain a solution with concentration at 0.2 mg/mL of test article.
# Test article was added into 1% Methyl Cellulose with vortexing and sonication to obtain a homogeneous suspension with concentration at 0.5 mg/mL of test article.
# For IV infusion (1 mg/kg) administration, blood samples were collected from each animal at 0, 0.25, 0.5, 0.75, 1, 1.08, 1.25, 1.5, 1.75, 2, 3, 5, 8, 12, 24 hour post-dose.
# For PO (5 mg/kg) administration, blood samples were collected from each animal at 0, 0.25, 0.5, 1, 1.5, 2, 3, 4, 6, 8, 12, 24 hour post-dose.
# Blood samples (50 μL) were collected from each animal via jugular vein. These blood samples were placed into tubes containing K2EDTA. Whole blood was mixed with same volume of water and inverted several times. The blood samples were stored at −75±15° C. until analysis.
# For IV infusion (1 mg/kg) administration, urine samples were collected from each animal at 0-4, 4-8, 8-12, 12-24 hour post-dose.
# For PO (5 mg/kg) administration, urine samples were collected from each animal at 0-4, 4-8, 8-12, 12-24 hour post-dose.
# Urine samples were collected continuously into containers maintained over dry ice at the intervals outlined below and stored at −80° C. prior to analysis.
# 55 μL of standards, 55 μL of QC samples or 55 μL of unknown samples (50 μL of blood or urine with 5 μL 50% acetonitrile) were mixed to 200 μL of acetonitrile containing IS (dexamethasone) to precipitate proteins. Then the samples were vortexed for 30 sec. After centrifugation at 4° C., 4700 rpm for 30 min, and 5 μL of the supernatant was injected into the LC-MS/MS system for quantitative analysis.
# Test article blood and urine concentrations for each animal following IV infusion at 1 mg/kg and PO at 5 mg/kg were used to calculate pharmacokinetic parameters by employing a non-compartmental analysis (Phoenix™ WinNonlin® 7.0). The linear trapezoidal algorithm was used for AUC calculation.
Compound,HAI titer EC > 90 [1],% F [2],Ue % po [2]
Cc1cc(-c2cc(F)c(F)c(Cl)c2)ccc1[C@@H](O)[C@H]1O[C@H](CO)[C@@H](O)[C@H](O)[C@@H]1O [Example 73],“++++” (<50 “++++”),“++” (10 <= x <= 30%),“++” (0.5 <= x <= 5%)
Cc1cc(-c2cc(C(F)(F)F)cc(C(F)(F)F)c2)ccc1[C@@H](O)[C@H]1O[C@H](CO)[C@@H](O)[C@H](O)[C@@H]1O [Example 74],“++++” (<50 “++++”),“++” (10 <= x <= 30%),“+” (<0.5%)
Cc1cc(-c2cc(F)c(OC(C)C)c(F)c2)ccc1[C@@H](O)[C@H]1O[C@H](CO)[C@@H](O)[C@H](O)[C@@H]1O [Example 93],“++++” (<50 “++++”),“++” (10 <= x <= 30%),“+” (<0.5%)
CCc1c(F)cc(-c2ccc([C@@H](O)[C@H]3O[C@H](CO)[C@@H](O)[C@H](O)[C@@H]3O)c(C)c2)cc1F [Example 94],“++++” (<50 “++++”),“++” (10 <= x <= 30%),“+” (<0.5%)
Cc1cc(-c2cc(F)c(OC(F)(F)F)c(F)c2)ccc1[C@@H](O)[C@H]1O[C@H](CO)[C@@H](O)[C@H](O)[C@@H]1O [Example 101],“++++” (<50 “++++”),“++” (10 <= x <= 30%),“+” (<0.5%)
